Measured values reported in ChEMBL document CHEMBL5291721, “A preclinical secondary pharmacology resource illuminates target-adverse drug reaction associations of marketed drugs” (Nat Commun, 2023).

What was measured:
[1] = molecular target: Beta-3 adrenergic receptor (Homo sapiens, UniProt P13945)
[2] = molecular target: Voltage-dependent N-type calcium channel subunit alpha-1B (Rattus norvegicus, UniProt Q02294); assay type: functional
Cannabinoid receptor 1 = Cannabinoid receptor 1 (Homo sapiens, UniProt P21554)
Chain of Cannabinoid receptor 1 (P21554 whole entry): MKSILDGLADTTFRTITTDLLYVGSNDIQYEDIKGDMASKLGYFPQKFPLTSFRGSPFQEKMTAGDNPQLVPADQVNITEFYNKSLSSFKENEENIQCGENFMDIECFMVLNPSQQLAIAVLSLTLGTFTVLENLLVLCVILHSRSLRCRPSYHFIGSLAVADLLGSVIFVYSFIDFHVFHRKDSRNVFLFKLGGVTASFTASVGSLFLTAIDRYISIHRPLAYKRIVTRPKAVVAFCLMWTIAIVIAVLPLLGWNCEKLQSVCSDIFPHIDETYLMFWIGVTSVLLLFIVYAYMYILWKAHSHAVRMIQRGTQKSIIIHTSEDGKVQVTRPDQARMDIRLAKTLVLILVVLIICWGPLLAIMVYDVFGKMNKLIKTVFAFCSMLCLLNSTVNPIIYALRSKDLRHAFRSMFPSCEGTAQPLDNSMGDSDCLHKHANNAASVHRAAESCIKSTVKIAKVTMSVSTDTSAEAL

[3] = molecular target: T1, Corticotropin-releasing factor receptor 1 (Homo sapiens, UniProt P34998)
T1 sequence (P34998 whole entry): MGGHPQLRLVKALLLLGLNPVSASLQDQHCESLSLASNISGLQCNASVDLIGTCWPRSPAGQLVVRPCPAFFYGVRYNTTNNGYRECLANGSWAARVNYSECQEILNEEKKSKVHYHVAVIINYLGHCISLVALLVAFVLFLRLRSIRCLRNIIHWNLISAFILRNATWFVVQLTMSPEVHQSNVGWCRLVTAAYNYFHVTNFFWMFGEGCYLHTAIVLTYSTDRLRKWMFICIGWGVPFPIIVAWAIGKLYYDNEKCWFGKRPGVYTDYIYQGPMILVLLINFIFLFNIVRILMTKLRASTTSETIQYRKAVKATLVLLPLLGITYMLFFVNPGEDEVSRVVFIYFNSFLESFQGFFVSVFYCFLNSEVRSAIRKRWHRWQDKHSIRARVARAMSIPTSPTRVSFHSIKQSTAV

[4] = molecular target: T2, Gamma-aminobutyric acid receptor subunit alpha-1/alpha-2/beta-2/gamma-2 (Homo sapiens, UniProt P14867+P18507+P47869+P47870); assay type: functional, cell-based
[5] = molecular target: T2, Gamma-aminobutyric acid receptor subunit alpha-1/alpha-2/beta-2/gamma-2; assay type: functional, cell-based; remark: listed apart in the source
Glucagon receptor = Glucagon receptor (Homo sapiens, UniProt P47871)
Chain of Glucagon receptor (P47871 whole entry): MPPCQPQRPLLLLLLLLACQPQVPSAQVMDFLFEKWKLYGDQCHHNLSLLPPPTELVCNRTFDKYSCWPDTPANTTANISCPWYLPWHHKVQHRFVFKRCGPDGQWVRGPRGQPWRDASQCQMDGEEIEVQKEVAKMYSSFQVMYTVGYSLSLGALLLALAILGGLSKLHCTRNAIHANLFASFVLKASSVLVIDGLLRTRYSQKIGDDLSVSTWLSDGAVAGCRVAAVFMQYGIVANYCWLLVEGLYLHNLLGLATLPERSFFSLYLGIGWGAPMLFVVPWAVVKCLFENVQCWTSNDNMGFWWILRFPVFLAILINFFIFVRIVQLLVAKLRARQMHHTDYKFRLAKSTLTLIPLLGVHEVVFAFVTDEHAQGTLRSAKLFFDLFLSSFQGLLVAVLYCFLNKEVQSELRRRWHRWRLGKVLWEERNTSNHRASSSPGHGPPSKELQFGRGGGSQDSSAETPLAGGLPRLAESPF

Melanocortin receptor 4 = Melanocortin receptor 4 (Homo sapiens, UniProt P32245)
Chain of Melanocortin receptor 4 (P32245 whole entry): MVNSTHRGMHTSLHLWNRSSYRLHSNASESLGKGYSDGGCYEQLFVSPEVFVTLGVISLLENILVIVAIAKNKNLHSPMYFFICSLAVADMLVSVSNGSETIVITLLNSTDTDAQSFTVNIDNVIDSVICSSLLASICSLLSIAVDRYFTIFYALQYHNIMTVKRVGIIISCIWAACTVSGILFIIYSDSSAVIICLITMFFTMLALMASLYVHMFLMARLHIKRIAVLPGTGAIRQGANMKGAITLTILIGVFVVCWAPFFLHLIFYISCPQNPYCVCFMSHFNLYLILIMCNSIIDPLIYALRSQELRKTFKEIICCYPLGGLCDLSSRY

[6] = molecular target: Neurotensin receptor type 1 (Homo sapiens, UniProt P30989)
Chain of Neurotensin receptor type 1 (P30989 whole entry): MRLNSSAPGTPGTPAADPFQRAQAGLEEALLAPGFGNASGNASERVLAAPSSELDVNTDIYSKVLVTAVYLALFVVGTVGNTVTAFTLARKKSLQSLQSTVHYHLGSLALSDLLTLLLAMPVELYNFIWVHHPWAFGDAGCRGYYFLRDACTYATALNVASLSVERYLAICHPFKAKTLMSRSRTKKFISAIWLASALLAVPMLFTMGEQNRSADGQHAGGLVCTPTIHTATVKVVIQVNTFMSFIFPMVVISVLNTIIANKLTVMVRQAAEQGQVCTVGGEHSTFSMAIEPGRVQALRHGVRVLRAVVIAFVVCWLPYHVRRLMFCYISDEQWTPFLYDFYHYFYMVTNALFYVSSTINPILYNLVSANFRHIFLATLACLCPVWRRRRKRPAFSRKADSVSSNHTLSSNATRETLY

[7] = molecular target: T3, 5-hydroxytryptamine receptor 1A (Homo sapiens, UniProt P08908)
T3 sequence (P08908 whole entry): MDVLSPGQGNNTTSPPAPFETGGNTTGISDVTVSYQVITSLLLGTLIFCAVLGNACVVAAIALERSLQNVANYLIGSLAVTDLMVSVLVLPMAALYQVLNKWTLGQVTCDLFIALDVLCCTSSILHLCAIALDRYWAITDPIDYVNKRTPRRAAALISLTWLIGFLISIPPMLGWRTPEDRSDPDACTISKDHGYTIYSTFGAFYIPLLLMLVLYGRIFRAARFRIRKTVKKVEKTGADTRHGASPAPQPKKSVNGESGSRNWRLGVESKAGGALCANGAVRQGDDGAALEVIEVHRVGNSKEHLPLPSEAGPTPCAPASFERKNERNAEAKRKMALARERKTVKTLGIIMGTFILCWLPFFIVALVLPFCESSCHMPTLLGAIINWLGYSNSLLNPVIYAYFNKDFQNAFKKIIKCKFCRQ

[8] = molecular target: T4, Muscarinic acetylcholine receptor M2 (Homo sapiens, UniProt P08172)
T4 sequence (P08172 whole entry): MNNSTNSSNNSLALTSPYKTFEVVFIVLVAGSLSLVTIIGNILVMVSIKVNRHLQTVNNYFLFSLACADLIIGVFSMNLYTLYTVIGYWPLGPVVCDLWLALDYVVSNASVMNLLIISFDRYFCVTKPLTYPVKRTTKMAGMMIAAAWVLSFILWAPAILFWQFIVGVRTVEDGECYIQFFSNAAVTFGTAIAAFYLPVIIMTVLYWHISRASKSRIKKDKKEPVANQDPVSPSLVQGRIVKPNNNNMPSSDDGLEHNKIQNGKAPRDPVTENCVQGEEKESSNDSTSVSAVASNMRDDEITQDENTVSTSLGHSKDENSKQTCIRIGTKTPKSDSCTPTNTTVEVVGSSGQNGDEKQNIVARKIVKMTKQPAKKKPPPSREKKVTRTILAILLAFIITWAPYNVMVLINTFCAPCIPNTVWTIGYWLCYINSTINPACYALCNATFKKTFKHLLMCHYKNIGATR

[9] = molecular target: T5, Muscarinic acetylcholine receptor M1 (Homo sapiens, UniProt P11229); assay type: functional
T5 sequence (P11229 whole entry): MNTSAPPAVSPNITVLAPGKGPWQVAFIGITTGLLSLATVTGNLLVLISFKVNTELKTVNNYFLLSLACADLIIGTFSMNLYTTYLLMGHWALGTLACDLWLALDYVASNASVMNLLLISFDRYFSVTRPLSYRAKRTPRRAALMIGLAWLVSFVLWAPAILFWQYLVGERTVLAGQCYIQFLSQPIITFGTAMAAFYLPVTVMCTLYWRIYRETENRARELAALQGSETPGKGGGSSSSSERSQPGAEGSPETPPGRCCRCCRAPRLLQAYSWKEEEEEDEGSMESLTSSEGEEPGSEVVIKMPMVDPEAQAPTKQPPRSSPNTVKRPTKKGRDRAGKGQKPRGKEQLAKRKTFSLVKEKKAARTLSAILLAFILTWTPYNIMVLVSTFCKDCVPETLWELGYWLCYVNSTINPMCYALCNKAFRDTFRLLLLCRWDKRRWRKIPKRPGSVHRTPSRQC

[10] = molecular target: Muscarinic acetylcholine receptor M3 (Homo sapiens, UniProt P20309)
Chain of Muscarinic acetylcholine receptor M3 (P20309 whole entry): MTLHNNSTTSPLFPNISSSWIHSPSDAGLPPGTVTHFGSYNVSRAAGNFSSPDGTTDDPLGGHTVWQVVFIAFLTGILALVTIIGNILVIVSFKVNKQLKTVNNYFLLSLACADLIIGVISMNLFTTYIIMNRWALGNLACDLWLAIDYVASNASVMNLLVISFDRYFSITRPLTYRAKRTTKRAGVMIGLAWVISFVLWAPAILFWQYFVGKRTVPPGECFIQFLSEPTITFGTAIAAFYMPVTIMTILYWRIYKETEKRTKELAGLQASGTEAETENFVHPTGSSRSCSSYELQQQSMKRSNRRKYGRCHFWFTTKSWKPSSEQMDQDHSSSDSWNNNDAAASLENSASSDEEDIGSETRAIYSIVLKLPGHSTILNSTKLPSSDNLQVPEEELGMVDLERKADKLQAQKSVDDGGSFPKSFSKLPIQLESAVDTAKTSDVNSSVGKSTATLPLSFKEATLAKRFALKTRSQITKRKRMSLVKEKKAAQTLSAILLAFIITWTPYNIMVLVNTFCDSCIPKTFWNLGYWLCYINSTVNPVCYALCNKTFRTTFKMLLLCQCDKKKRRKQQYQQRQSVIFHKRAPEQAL

Histamine H1 receptor = Histamine H1 receptor (Homo sapiens, UniProt P35367)
Chain of Histamine H1 receptor (P35367 whole entry): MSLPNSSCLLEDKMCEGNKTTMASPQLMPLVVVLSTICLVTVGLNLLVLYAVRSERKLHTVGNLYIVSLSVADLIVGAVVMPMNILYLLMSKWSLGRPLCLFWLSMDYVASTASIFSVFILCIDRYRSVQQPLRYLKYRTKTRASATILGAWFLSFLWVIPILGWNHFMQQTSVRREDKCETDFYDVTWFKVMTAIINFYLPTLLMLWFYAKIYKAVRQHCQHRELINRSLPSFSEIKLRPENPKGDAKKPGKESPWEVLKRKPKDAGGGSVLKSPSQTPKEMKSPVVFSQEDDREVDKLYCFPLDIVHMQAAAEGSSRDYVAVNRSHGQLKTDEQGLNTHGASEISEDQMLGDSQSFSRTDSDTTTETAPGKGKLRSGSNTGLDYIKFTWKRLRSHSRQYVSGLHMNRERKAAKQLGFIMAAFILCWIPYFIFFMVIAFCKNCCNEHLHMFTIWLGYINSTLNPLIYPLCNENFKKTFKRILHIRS

[11] = molecular target: T2, Gamma-aminobutyric acid receptor subunit alpha-1/alpha-2/beta-2/gamma-2; assay type: protein-complex assay
Also: assay procedure not described here.

Chain of Beta-3 adrenergic receptor (P13945 whole entry): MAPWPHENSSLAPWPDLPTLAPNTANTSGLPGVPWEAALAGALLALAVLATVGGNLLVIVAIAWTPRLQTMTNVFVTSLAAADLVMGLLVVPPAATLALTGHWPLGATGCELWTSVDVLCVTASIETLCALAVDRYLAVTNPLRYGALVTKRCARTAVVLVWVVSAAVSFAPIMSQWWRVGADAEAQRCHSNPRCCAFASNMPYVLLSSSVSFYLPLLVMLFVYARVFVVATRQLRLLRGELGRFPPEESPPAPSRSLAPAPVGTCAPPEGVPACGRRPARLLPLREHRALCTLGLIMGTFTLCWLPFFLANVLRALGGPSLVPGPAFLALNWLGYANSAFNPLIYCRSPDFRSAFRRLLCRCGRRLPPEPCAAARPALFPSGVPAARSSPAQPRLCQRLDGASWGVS

Row | Compound | AC50 [1] [µM] | AC50 [2] [µM] | AC50 (Cannabinoid receptor 1) [µM] | AC50 [3] [µM] | AC50 [4] [µM] | AC50 [5] [µM] | AC50 (Glucagon receptor) [µM] | AC50 (Melanocortin receptor 4) [µM] | AC50 [6] [µM] | AC50 [7] [µM] | AC50 [8] [µM] | AC50 [9] [µM] | AC50 [10] [µM] | AC50 (Histamine H1 receptor) [µM] | AC50 [11] [µM]
1 | CCOc1nc2cccc(C(=O)O)c2n1Cc1ccc(-c2ccccc2-c2nnn[nH]2)cc1 | > 30 | > 10 | > 10 | > 30 | > 30 | > 30 | > 30 | > 10 | > 30 | > 10 | > 10 |  |  |  | 
2 | CCCc1nc2c(C)cc(-c3nc4ccccc4n3C)cc2n1Cc1ccc(-c2ccccc2C(=O)O)cc1 | > 30 | > 10 | > 30 | > 30 | > 30 | > 30 | > 30 | > 30 | > 30 | > 10 | > 10 | > 30 | > 30 | > 30 | 
3 | CCCNC(=O)NS(=O)(=O)c1ccc(Cl)cc1 [CHLORPROPAMIDE] | > 30 | > 10 | > 10 | > 30 |  |  | > 30 | > 30 | > 30 | > 10 |  |  |  |  | 
4 | Cc1nc(Nc2ncc(C(=O)Nc3c(C)cccc3Cl)s2)cc(N2CCN(CCO)CC2)n1 [DASATINIB] |  | > 10 | > 10 |  |  |  | > 10 | > 30 |  | 21.9 | > 10 | > 30 | > 30 | > 30 | 
5 | O=C(O)Cc1ccccc1Nc1c(Cl)cccc1Cl [DICLOFENAC] | > 30 | > 10 | > 10 | > 30 |  |  | > 30 | > 30 | > 30 | > 10 | > 10 |  |  |  | > 3
6 | O=C(O)Cc1ccccc1Oc1ccc(Cl)cc1Cl [FENCLOFENAC] | > 30 | > 10 | > 10 | > 30 |  |  | > 30 | > 30 | > 30 | > 10 | > 10 | > 10 | > 10 | > 10 | 
7 | Cc1ccc(C)c(OCCCC(C)(C)C(=O)O)c1 [GEMFIBROZIL] | > 30 | > 10 | > 10 | > 30 |  |  | > 30 | > 30 | > 30 | > 10 | > 10 |  |  |  | 
8 | COc1cc(C(C)=O)ccc1OCCCN1CCC(c2noc3cc(F)ccc23)CC1 [ILOPERIDONE] |  |  |  |  | > 30 | > 30 |  |  |  | 0.0785 |  | 6.38 | > 30 |  | 
9 | CC[C@H](C)C(=O)O[C@H]1C[C@@H](C)C=C2C=C[C@H](C)[C@H](CC[C@@H]3C[C@@H](O)CC(=O)O3)[C@H]21 [LOVASTATIN] | 11.6 | > 10 | > 10 | > 30 |  |  | > 30 | > 30 | > 30 | > 10 | > 10 |  |  |  | 
10 | CC[C@@H](CO)NC(=O)[C@@H]1C=C2c3cccc4c3c(cn4C)C[C@H]2N(C)C1 [METHYSERGIDE] | > 30 | > 10 | > 10 | > 30 |  |  | > 30 | > 30 | > 30 | 0.192 | > 10 |  |  |  | 
11 | CC(CN1c2ccccc2Sc2ccccc21)N(C)C (stereo not given) [PROMETHAZINE] | > 30 | > 10 | > 10 | > 30 |  |  | > 30 | 25 | > 30 | 6.7 | 0.161 |  |  |  | 
12 | CN(CCOc1ccc(CC2SC(=O)NC2=O)cc1)c1ccccn1 (stereo not given) [ROSIGLITAZONE] | > 30 | > 10 | 16 | > 30 |  |  | > 30 | 23.7 | > 30 | > 10 | > 10 |  |  |  | 
13 | CC(C)[C@H](N)C(=O)OCCOCn1cnc2c(=O)[nH]c(N)nc21 [VALACYCLOVIR] | > 30 | > 10 | > 10 | > 30 |  |  | > 30 | > 30 | > 30 | > 10 | > 10 |  |  |  | 
14 | O=C1Cc2cc(CCN3CCN(c4nsc5ccccc45)CC3)c(Cl)cc2N1 [ZIPRASIDONE] | > 30 | > 10 | > 10 | > 30 |  |  | > 30 | > 30 | > 30 | 0.008 | > 10 | > 10 | > 10 |  | > 30
